Data taken from patent US12195427B2, “MASP-2 inhibitors and methods of use” (priority 2018, dated 2025).
Where a name gives a salt, the structure may show the parent alone.

Target: MASP-2 CCP2-SP (Homo sapiens (Human), UniProt O00187)
Assay: MASP-2 co-crystallization, X-ray crystallography and structure analysis (H-bonds, van der Waals contacts);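 for Ligand-pharmacophore element distance, pharmacophore element C2: distance from averaged pharmacophore element to bound ligand; missing value means element absent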;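 for Ligand-pharmacophore element distance, pharmacophore element C3: distance from averaged pharmacophore element to bound ligand; missing value means element absent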;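 for Ligand-pharmacophore element distance, pharmacophore element C4: distance from averaged pharmacophore element to bound ligand; missing value means element absent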;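 for Ligand-pharmacophore element distance, pharmacophore element C5: distance from averaged pharmacophore element to bound ligand; missing value means element absent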
Set-up: van der Waals contact distance, MASP-2 HIS 483 atom CD2 / van der Waals contact distance, MASP-2 HIS 483 atom NE2 / van der Waals contact distance, SER 654 C to compound atom / van der Waals contact distance, SER 654 O to compound atom / van der Waals contact distance, TRP 655 C to compound atom / van der Waals contact distance, MASP-2 GLY 528 atom CA / van der Waals contact distance TRP 655 atom CZ3 / van der Waals contact distance TRP 655 atom N / van der Waals contact distance TRP 655 atom CE3 / van der Waals contact distance GLY 656 atom C / van der Waals contact distance GLY 656 atom CA / van der Waals contact distance GLY 656 atom O / van der Waals contact distance, MASP-2 TYR 607 atom CD1 / van der Waals contact distance, MASP-2 PRO 606 atom O / d(C3,CA1) / d(CA1,N1)2 / d(H4,O1) / d(H4,O2) / d(O1,O2) / d(CA1,O2) / d(CA6,O1) / d(CA6,O2) / d(CA1,C5) / d(O2,H3) / d(N2,C2) / d(CA5,N2) / d(N2,C4) / d(N2,C6) / d(N2,CA3) / d(N2,O3) / d(O4,H2): unit not given beside the values
Conditions: for H-bond distance to MASP-2 ASP 627 atom OD2: ASP 627 OD2; for H-bond distance to MASP-2 GLY 656 atom N: GLY 656 N; for H-bond distance to MASP-2 SER 654 atom O: SER 654 O; for H-bond distance to MASP-2 SER 657 atom O: SER 657 O; for van der Waals contact distance TRP 655 atom CE3: MASP-2 TRP 655 CE3, compound atom in line below; for Ligand-pharmacophore element distance, pharmacophore element C2 / Ligand-pharmacophore element distance, pharmacophore element C3 / Ligand-pharmacophore element distance, pharmacophore element C4 / Ligand-pharmacophore element distance, pharmacophore element C5 / Ligand-pharmacophore element distance, pharmacophore element C6 / Ligand-pharmacophore element distance, pharmacophore element C7 / Ligand-pharmacophore element distance, pharmacophore element CA1 / Ligand-pharmacophore element distance, pharmacophore element CA2 / Ligand-pharmacophore element distance, pharmacophore element CA3 / Ligand-pharmacophore element distance, pharmacophore element CA4 / Ligand-pharmacophore element distance, pharmacophore element CA5 / Ligand-pharmacophore element distance, pharmacophore element CA6: Table A4-1
In short: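 E. coli-expressed CCP2-SP (±6His); apo crystals soaked 1–2× in inhibitor-containing crystallization solution; optional 20% glycerol cryoprotection, LN2 flash-cool; synchrotron data at 1.0 wavelength; MR using 1Q3X portions, partial refinement; single pose analysed when several seen.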

[1] = Table A5-1 pharmacophore: distance between elements, S2/S1 region
[2] = Table A5-2 pharmacophore distance, S3/S4 region
[3] = Table A7-1, between pharmacophore elements of the bound compound

Sequence of MASP-2 CCP2-SP (O00187 445-686): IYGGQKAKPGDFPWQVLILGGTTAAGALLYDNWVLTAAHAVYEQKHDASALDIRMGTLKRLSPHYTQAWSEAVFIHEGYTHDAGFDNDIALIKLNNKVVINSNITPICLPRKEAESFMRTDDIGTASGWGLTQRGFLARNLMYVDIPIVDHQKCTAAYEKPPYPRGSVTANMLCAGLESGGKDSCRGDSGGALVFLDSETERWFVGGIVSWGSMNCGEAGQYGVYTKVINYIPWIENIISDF
Sequence of MASP-2 CCP2-SP (O00187 364-432 partner): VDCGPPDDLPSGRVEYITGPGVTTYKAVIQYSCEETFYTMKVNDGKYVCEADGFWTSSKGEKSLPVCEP

Cc1nc(N)ccc1CNC(=O)[C@H](C)NC(=O)[C@H]1C[C@@H](c2ccccc2)CCN1C [compound 1441, (2R,4S)—N—((S)-1-(((6-Amino-2-methylpyridin-3-yl)methyl)amino)-1-oxopropan-2-yl)-1-methyl-4-phenylpiperidine-2-carboxamide]
H-bond distance to MASP-2 ASP 627 atom OD2 (Table A1 (H-Bonds)): 3.23 | H-bond distance to MASP-2 GLY 656 atom N (Table A1 (H-Bonds)): 3.2 | H-bond distance to MASP-2 SER 628 atom O (Table A1 (H-Bonds), SER 628 O): 3.06 | H-bond distance to MASP-2 SER 654 atom O (Table A1 (H-Bonds)): 3.07 | H-bond distance to MASP-2 SER 657 atom O (Table A1 (H-Bonds)): 2.91 | van der Waals contact distance, MASP-2 amino acid atom to compound atom (Table A2): 3.8 | van der Waals contact distance, MASP-2 HIS 483 atom CD2 (Table A2-1): 3.74 | van der Waals contact distance, MASP-2 HIS 483 atom NE2 (Table A2-1): 3.61 | van der Waals contact distance, MASP-2 GLY 528 atom CA (Table A2-2): 3.71 | van der Waals contact distance, MASP-2 PHE 529 atom CE1 (Table A2-3): 3.85 | van der Waals contact distance, MASP-2 amino acid atom to compound atom (Table A2-9, ARG 630, AA atoms CG, CZ): 3.87 | van der Waals contact distance, VAL 653 CG1 to compound atom (Table A2-11): 3.38 | van der Waals contact distance, SER 654 O to compound atom (Table A2-12): 3.85 | van der Waals contact distance, TRP 655 CA to compound atom (Table A2-12): 3.34 | van der Waals contact distance TRP 655 atom CE3 (Table A2-13): 3.65 | van der Waals contact distance TRP 655 atom CZ3 (Table A2-13, MASP-2 TRP 655 CZ3): 3.75 | Ligand-pharmacophore element distance, pharmacophore element C2: 0.54 | Ligand-pharmacophore element distance, pharmacophore element C3: 0.17 | Ligand-pharmacophore element distance, pharmacophore element C4: 0 | Ligand-pharmacophore element distance, pharmacophore element C5: 0 | Ligand-pharmacophore element distance, pharmacophore element C6: 0 | Ligand-pharmacophore element distance, pharmacophore element C7: 0 | Ligand-pharmacophore element distance, pharmacophore element CA1: 0.64 | Ligand-pharmacophore element distance, pharmacophore element CA2: 0.64 | Ligand-pharmacophore element distance, pharmacophore element CA3: 0 | Ligand-pharmacophore element distance, pharmacophore element CA4: 0 | Ligand-pharmacophore element distance, pharmacophore element CA5: 0 | Ligand-pharmacophore element distance, pharmacophore element CA6: 0 | d(C3,CA1) [1]: 2.85 | d(CA1,N1)2 [1]: 1.37 | d(CA1,O1) [1]: 4.27 | d(CA1,O2) [1]: 3.96 | d(H4,O1) [1]: 4.29 | d(H4,O2) [1]: 3.79 | d(O1,O2) [1]: 3.29 | d(N2,C2) [2]: 1.45 | d(N2,CA2) [2]: 5.75 | d(O2,H3) [2]: 4.15 | d(O2,N2) [2]: 2.72 | a(C3, CA1, O1) (Table A6-1 pharmacophore angle): 148.89 | a(CA1, O1, O2) (Table A6-1 pharmacophore angle): 108.56 | a(O1, O2, H4) (Table A6-1 pharmacophore angle): 132.47 | a(N1, CA1, O1) b) (Table A6-1 pharmacophore angle, Methyl-amino-pyridine compounds): 173.13 | a(O1, O2, H3) (Table A6-2 pharmacophore angle): 145.43 | a(O1, O2, N2) (Table A6-2 pharmacophore angle): 144.23 | a(O2, N2, C2) (Table A6-2 pharmacophore angle): 131.10 | a(O2, N2, CA2) (Table A6-2 pharmacophore angle): 156.32 | Pharmacophore torsion angle a(C3, CA1, O1, H4) [3]: 21.88 | Pharmacophore torsion angle a(H4, O1, O2, H3) [3]: 50.54 | Pharmacophore torsion angle a(H4, O1, O2, N2) [3]: 141.99 | Pharmacophore torsion angle a(N1, CA1, O1, H4) [3]: −6.82 | Pharmacophore torsion angle a(O1, H4, O2, CA1) [3]: −80.01 | Pharmacophore torsion angle a(O1, O2, N2, C2) [3]: 117.29 | Pharmacophore torsion angle a(O1, O2, N2, CA2) (Table A7-2, between pharmacophore elements of the bound compound): 126.16

Cc1cnc(NCCc2ccccc2)c(=O)n1CC(=O)NCc1ccc2nc(N)[nH]c2c1 [compound 1492, N-((2-Amino-1H-benzo[d]imidazol-6-yl)methyl)-2-(6-methyl-2-oxo-3-(phenethylamino)pyrazin-1(2H)-yl)acetamide Trifluoroacetamide salt]
H-bond distance to MASP-2 ASP 627 atom OD2 (Table A1 (H-Bonds)): 3.32 | H-bond distance to MASP-2 GLY 656 atom N (Table A1 (H-Bonds)): 3.06 | H-bond distance to MASP-2 GLY 656 atom O (Table A1 (H-Bonds), GLY 656 O): 2.7 | H-bond distance to MASP-2 SER 654 atom O (Table A1 (H-Bonds)): 2.78 | H-bond distance to MASP-2 SER 657 atom O (Table A1 (H-Bonds)): 2.72 | H-bond distance to MASP-2 SER 657 atom OG (Table A1 (H-Bonds), SER 657 OG): 2.62 | van der Waals contact distance, MASP-2 HIS 483 atom CD2 (Table A2-1): 3.78 | van der Waals contact distance, MASP-2 PRO 606 atom O (Table A2-4): 3.81 | van der Waals contact distance, MASP-2 amino acid atom to compound atom (Table A2-9 second part, ARG 630, AA atoms N, NE, NH1): 3.71 | van der Waals contact distance, SER 654 C to compound atom (Table A2-11): 3.88 | van der Waals contact distance, VAL 653 CG1 to compound atom (Table A2-11): 3.61 | van der Waals contact distance, TRP 655 C to compound atom (Table A2-12): 3.7 | van der Waals contact distance TRP 655 atom CE3 (Table A2-13): 3.74 | van der Waals contact distance, MASP-2 amino acid atom to compound atom (Table A2 section before Table A2-8): 3.86 | Ligand-pharmacophore element distance, pharmacophore element C2: 2.91 | Ligand-pharmacophore element distance, pharmacophore element C3: 0 | Ligand-pharmacophore element distance, pharmacophore element C4: 0 | Ligand-pharmacophore element distance, pharmacophore element C5: 0 | Ligand-pharmacophore element distance, pharmacophore element C6: 0 | Ligand-pharmacophore element distance, pharmacophore element C7: 0 | Ligand-pharmacophore element distance, pharmacophore element CA1: 1.7 | Ligand-pharmacophore element distance, pharmacophore element CA2: 0 | Ligand-pharmacophore element distance, pharmacophore element CA3: 0 | Ligand-pharmacophore element distance, pharmacophore element CA4: 0 | Ligand-pharmacophore element distance, pharmacophore element CA5: 0.84 | Ligand-pharmacophore element distance, pharmacophore element CA6: 0 | d(CA1,N1) [1]: 1.85 | d(CA1,O1) [1]: 4.66 | d(CA1,O2) [1]: 6.47 | d(CA6,O1) [1]: 3.43 | d(CA6,O2) [1]: 1.13 | d(H4,O1) [1]: 3.14 | d(H4,O2) [1]: 5.11 | d(O1,O2) [1]: 3.18 | d(O2,H3) [2]: 7.20 | a(CA1, O1, O2) (Table A6-1 pharmacophore angle): 137.45 | a(O1, CA6, O2) (Table A6-1 pharmacophore angle): 87.17 | a(O1, O2, H4) (Table A6-1 pharmacophore angle): 143.64 | A(N1, CA1, O1) a) (Table A6-1 pharmacophore angle, all compounds with protonatable center N1 except Methyl-amino-pyridine): 173.84 | a(O1, O2, H3) (Table A6-2 pharmacophore angle): 153.97 | Pharmacophore torsion angle a(CA6, O1, H4, O2) [3]: −19.90 | Pharmacophore torsion angle a(H4, O1, O2, H3) [3]: 94.72 | Pharmacophore torsion angle a(N1, CA1, O2, H4) [3]: −132.36 | Pharmacophore torsion angle a(O1, H4, O2, CA1) [3]: −60.21
